pIC50: −log10 of the molar value.
Legend:
Format in all cases: biochemical
[1] = target: T1, FPTase (Homo sapiens, UniProt P49354+P49356); assay: In vitro inhibition of recombinant farnesyl-protein transferase (transferase assay); conditions: 650 nM Ras-CVLS, 100 nM farnesyl diphosphate, 30 °C
T1 construct: made in house
Excerpt: Molecular biological manipulations. To construct the C-terminus CAAX box routants, pUC-[L68]RAS1(term.) was digested with the restriction enzymes HincII and NarI to create a vector into which oligonucleotides containing new C-terminal sequences could be ligated. Except where indicated, the amino acids preceding the CAAX sequence are SLK. To simplify the nomenclature, [L68]RAS1 (term.)SLKCVLS (J.B. Gibbs et al., Proc. Natl. Acad Sci. U.S.A., 86:6630 (1989)) will be referred to as Ras-CVLS, and this convention is used for all other mutants. The substrate for Frase was Ras-CVLS. The substrate for GGPTase-I was Ras-CAIL.
Transferase Assays. Isoprenyl-protein transferase activity assays were carried out at 30 ° C. unless noted otherwise. A typical reaction contained (in a final volume of 50 μL): [^3 H]farnesyl diphosphate or [^3 H]geranylgeranyl diphosphate, Ras protein, 50 mM HEPES, pH 7.5, 5 mM MgCl2, 5 mM dithiothreitol and isoprenyl-protein transferase. The FPTase employed in the assay was prepared by recombinant expression as described in Omer, C. A., Kral, A. M., Diehl, R. E., Prendergast, G. C., Powers, S., Allen, C. M., Gibbs, J. B. and Kohl, N. E. (1993) Biochemistry 32:5167-5176. After thermally pre-equilibrating the assay mixture in the absence of enzyme, reactions were initiated by the addition of isoprenyl-protein transferase and stopped at timed intervals (typically 15 min) by the addition of 1M HCl in ethanol (1 mL). The quenched reactions were allowed to stand for 15 m (to complete the precipitation process). After adding 2 mL of 100% ethanol, the reactions were vacuum-filtered through Whatman GF/C filters. Filters were washed four times with 2 mL aliquots of 100% ethanol, mixed with scintillation fluid (10 mL) and then counted in a Beckman LS3801 scintillation counter.
(§1) For inhibition studies, assays were run as described above, except inhibitors were prepared as concentrated solutions in 100% dimethyl sulfoxide and then diluted 20-fold into the enzyme assay mixture. IC50 values were determined with both transferase substrates near KM concentrations. […]

[2] = target: T2, bGGPTase-I (Bos taurus, UniProt P29702+Q5EAD5); assay: In vitro inhibition of geranylgeranyl protein transferase type I purified from bovine brain (transferase assay); conditions: 500 nM Ras-CAIL, 100 nM geranylgeranyl diphosphate, 30 °C
T2 construct: Cerebral lobes from bovine brains were homogenized in lysis buffer; from tissue; host or cells: bovine brain (cerebral lobes)
Experimental: Purification of isoprenyl-protein transferases. All purification steps were performed at 4 ° C. Cerebral lobes from bovine brains were homogenized in lysis buffer containing 50 mM Tris-Cl, pH 8.0, 1 mM EGTA, 1 mM MgCl2, 5 mM dithiothreitol, 10 μg/mL aprotinin, 0.5 mM phenylmethyl sulfonyl fluoride (PMSF), 2 μg/mL antipain and 2 μg/mL leupeptin (M.D. Schaber et al. J. Biol. Chem., 265:14701 (1990)). Cellular debris and membranes were removed by centrifugation (10 000 g for 20 rain followed by 100 000 g for 30 minutes). The supematant was loaded directly onto a column (30 cm × 20 cm^2) of DEAE-Sephacel that had been equilibrated with lysis buffer. The column was washed with the same buffer and proteins were eluted with a linear gradient of NaCl (0-500 mM, 1 L+L) in the same buffer. Fractions (20 mL) were collected and those containing different transferase activities were pooled separately. This procedure resolved FTase and GGPTase-II from GGPTase-I. Each pool was then applied to an ω-Aminooctyl agarose colurctn (30 cm×4.9 cm^2) and eluted with a linear gradient of NaCl (0-500 mM, 500 mL+500 mL) in lysis buffer. Fractions containing both FTase and GGPTase-II were pooled. The GGPTase-I (termed "bGGPTase-I") so obtained was utilized in the assay described below.
Molecular biological manipulations. To construct the C-terminus CAAX box routants, pUC-[L68]RAS1(term.) was digested with the restriction enzymes HincII and NarI to create a vector into which oligonucleotides containing new C-terminal sequences could be ligated. Except where indicated, the amino acids preceding the CAAX sequence are SLK. […]
Transferase Assays. […] Filters were washed four times with 2 mL aliquots of 100% ethanol, mixed with scintillation fluid (10 mL) and then counted in a Beckman LS3801 scintillation counter.
as §1

[3] = target: T3, hGGPTase-I (Homo sapiens, UniProt P49354+P53609); assay: In vitro inhibition of recombinant human geranylgeranyl protein transferase type I (transferase assay); conditions: 500 nM Ras-CAIL, 100 nM geranylgeranyl diphosphate, 30 °C
T3 construct: made in house; host or cells: E. coli BL21(DE3), strain RD578
Excerpt: Cloning of human GGPTase-I βGGI subunit cDNAs. Approximately 1 nmol of GGPTase-I-I purified from bovine brain as described in Moomaw, J.F. and ,Casey, P.J. (1992) J Biol Chem 267:17438-17443, was subjected to electrophoresis on a 11% SDS-polyacrylamide gel and transferred to nitrocellulose paper. The nitrocellulose paper was then stained with Poneeau S to localize the subunit polypeptides. The 48 kDa and 43 kDa bands were excised from the nitroeellulose and sent to Harvard Microchem (Cambridge, Mass.) for processing. High-confidence sequences of five βGGI subunit peptides were obtained. The sequences of these peptides are listed below:
Two degenerate oligonucleotide primers [GCTC-GGATCC-C-(A/G)AA-(A/G)TT-NGT-(A/G)TA-(T/C)TG-(A/G)A (SEQ.ID.NO.:6) and GTCGG-GAATTC-ACN-AT(A/C/T)-GCN-TT(C/T)-TT(C/T)-GC (SEQ.ID.NO.:7)] were synthesized based on portions of two βGGI subunit peptide sequences [IFQYTNFEK (SEQ.ID.NO.:3) (antisense oligo) and TIAFFLSGLDMLD (SEQ.ID.NO.:I) respectively]. The polymerase chain reaction (PCR) (Saiki, R. K., Gelfand, D. H., Stoffel, S., Scharf, S. J., Higuchi, R., Horn, G. T., Mullis, K. B. and Erlich, H. A. (1988) Science 239:[…]) was performed using DNA obtained from a bovine brain eDNA library as template (Vogel, U.S., Dixon, R. A. F., Schaber, M.D., Diehl, R. E., Marshall, M. S., Scoinick, E. M., Sigal, I. S. and Gibbs, J. B. (1988) Nature 335:90-93). […]

pIC50 [1]	pIC50 [2]	pIC50 [3]	SMILES
6.10	8.72	7.64	CC[C@H](C)[C@H](NC(=O)[C@@H](NC[C@@H](N)CS)C(C)C)C(=O)N[C@@H](CC(C)C)C(=O)O [N-(2(R)-amino-3-mercaptopropyl)-valyl-isoleucyl-leucine]
6.35	7.43		CC[C@H](C)[C@@H](CO[C@H](C(=O)N[C@@H](CC(C)C)C(=O)O)C(C)C)NC[C@@H](N)CS [N-[2(S)-(2(S)-(2(R )-amino-3-mercaptopropylamino)-3(S)-methylpentyloxy)-3-methylbutanoyl]-leucine]

SMILES	pIC50 [1]	pIC50 [2]	pIC50 [3]
CC(C)C[C@H](NC(=O)[C@@H](/C=C/[C@@H](NC[C@@H](N)CS)C(C)C)C(C)C)C(=O)O [5(S)-[2(R)-amino-3-mercaptopropylamino]-6-methyl(R)-i-propyl-3,4-E-heptenoyl-leucine]	7.15	7.68	

— patent US5470832A, “Inhibitors of geranylgeranyl-protein transferase” (Merck & Co., Inc., priority 1994, dated 1995)
